Results as given in the supplement of paper PMC8882468.

Columns and labels:
Assay in all cases: CTG-3D luminescence at 96 h relative to day-0 seeding control (ratio to day 0); higher = more growth / less cytotoxicity
HCI-017.E2 = system: HCI-017.E2 (organoid from an ER-positive breast cancer xenograft)
Procedure: (§1)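 PDxO 3D drug screen (set 2), 8-point dose, 96 h; CTG-3D luminescence normalised to day-0 seeding control (mean of 4 wells each).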

HCI-003.E2 = system: HCI-003.E2 (organoid from an ER-positive breast cancer xenograft)
Procedure: as §1

HCI-010 = system: HCI-010 (organoid from a breast cancer xenograft)
Procedure: as §1

HCI-011.E2 = system: HCI-011.E2 (organoid from an ER-positive breast cancer xenograft)
Procedure: as §1

HCI-008 = system: HCI-008 (organoid from a HER2-enriched breast cancer xenograft)
Procedure: as §1

CC/C(=C(\c1ccc(O)cc1)c1ccc(OCCN(C)C)cc1)c1ccccc1 [4-hydroxytamoxifen]
CTG-3D luminescence at 96 h
Conditions | 12.5 pM | 0.00025 µM | 0.005 µM | 0.1 µM | 1 µM | 10 µM | 100 µM | 625 fM
HCI-003.E2 | 2.27 | 2.32 | 2.33 | 2.5 | 1.94 | 1.18 | 0.0128 | 2.7
HCI-011.E2 | 1.35 | 1.71 | 1.2 | 1.83 | 1.35 | 1.72 | 0.0138 | 1.77
HCI-017.E2 | 2.22 | 2.39 | 2.07 | 2.2 | 1.83 | 1.95 | 0.0156 | 2.35

CTG-3D luminescence at 96 h
Conditions | 12.5 pM | 0.00025 µM | 0.005 µM | 0.1 µM | 1 µM | 10 µM | 100 µM | 625 fM
HCI-008, days in culture: 325 | 1.16 | 3.13 | 1.6 | 3.49 | 3.48 | 2.12 | 0.0259 | 1.52
HCI-008, days in culture: 340 | 1.38 | 1.51 | 1.18 | 1.09 | 1.46 | – | 0.00621 | 1.32
HCI-008, days in culture: 354 | 1.2 | 1.03 | 2.12 | 1.34 | 1.26 | 1.3 | 0.00452 | 0.999
HCI-008, days in culture: 382 | 1.86 | 1.74 | 1.28 | 1.63 | 0.792 | 1.56 | 0.0061 | 1.74
HCI-010, days in culture: 79 | 2.04 | 1.84 | 1.96 | 1.93 | 1.9 | 1.48 | 0.00321 | 2.05
HCI-010, days in culture: 86 | 1.97 | 2.48 | 2.21 | 2.15 | 2.19 | 1.35 | 0.0109 | 2.16
HCI-010, days in culture: 102 | 1.1 | 1.13 | 1.07 | 1.2 | 1.23 | 0.95 | 0.00505 | 0.88
HCI-010, days in culture: 164 | 1.4 | 1.46 | 1.45 | 1.45 | 1.38 | 0.899 | 0.00677 | 1.23
HCI-011.E2, days in culture: 74 | 2.1 | 1.95 | 2.01 | 2.04 | 1.63 | 1.31 | -0.00194 | 2.23
HCI-017.E2, days in culture: 85 | 2.08 | 1.78 | 1.81 | 2.09 | 1.49 | 1.08 | 0.0372 | 2.06
